The values below come from patent US20240300976A1, “COMPOUNDS AS MODULATORS OF ENDOPLASMIC RETICULUM AMINOPEPTIDASE 1 (ERAP1)” (GREY WOLF THERAPEUTICS LIMITED, priority 2020, published 2024).

The target of the experiment is T1, ERAP1 (Homo sapiens, UniProt Q9NZ08).
T1 construct: Purified ERAP1(37-941)-10His (ERAP1); 10His (C)
T1 sequence (Q9NZ08 37-941): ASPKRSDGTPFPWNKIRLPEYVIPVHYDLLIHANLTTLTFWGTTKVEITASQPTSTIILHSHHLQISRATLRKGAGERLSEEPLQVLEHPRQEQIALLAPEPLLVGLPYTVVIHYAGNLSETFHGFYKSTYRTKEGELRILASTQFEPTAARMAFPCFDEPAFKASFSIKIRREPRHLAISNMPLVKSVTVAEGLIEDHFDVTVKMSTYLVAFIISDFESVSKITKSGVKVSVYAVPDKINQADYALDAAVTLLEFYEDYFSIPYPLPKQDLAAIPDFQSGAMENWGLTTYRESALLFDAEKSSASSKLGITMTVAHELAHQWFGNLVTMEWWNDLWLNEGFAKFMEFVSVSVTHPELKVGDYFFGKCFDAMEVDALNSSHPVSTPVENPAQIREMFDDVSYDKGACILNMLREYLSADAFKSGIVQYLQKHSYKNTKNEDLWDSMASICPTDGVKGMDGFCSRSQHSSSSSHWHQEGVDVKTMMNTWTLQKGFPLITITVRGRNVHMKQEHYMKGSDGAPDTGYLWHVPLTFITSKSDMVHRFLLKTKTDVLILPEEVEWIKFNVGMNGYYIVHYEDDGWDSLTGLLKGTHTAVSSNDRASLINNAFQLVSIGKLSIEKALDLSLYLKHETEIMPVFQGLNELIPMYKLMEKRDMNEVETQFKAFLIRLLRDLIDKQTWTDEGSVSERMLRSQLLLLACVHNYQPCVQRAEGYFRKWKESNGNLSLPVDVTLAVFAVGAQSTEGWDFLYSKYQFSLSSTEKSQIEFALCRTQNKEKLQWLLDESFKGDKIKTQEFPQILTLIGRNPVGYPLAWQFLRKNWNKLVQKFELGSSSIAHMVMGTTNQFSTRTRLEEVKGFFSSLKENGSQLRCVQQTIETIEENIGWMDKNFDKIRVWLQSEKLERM
Kind of experiment: ERAP1 mediated hydrolysis of an amide substrate (10-mer inhibition assay), biochemical system. The settings on record: 10-mer substrate, incubated at 23° C. for 1 h, excitation 279 nm and emission 355 nm; read-out: IC50 vs Decapeptide WRVYEKC(Dnp)ALK-acid (where Dnp is Dinitrophenyl maleimide) (10-mer). An excerpt:
This peptide has minimal fluorescence as the N-terminal tryptophan residue's fluorescence is quenched by the dinitrophenol (DNP) residue within the peptide. However, as ERAP1 hydrolyses the N-terminal amide bond and tryptophan is released this internal quenching is lost and the reaction is monitored by the increase in tryptophan fluorescence over the course of the assay. For the purposes of this application this assay is referred to as the “1 Omer inhibition assay” and compound potencies are calculated and expressed as 1050 as would be familiar to a person skilled in the art.
Biological Assay 1: ERAP1 Mediated Hydrolysis of an Amide Substrate Measured in a Biochemical System
• 1× Assay buffer (AB): 25 mM Bis-tris propane, 0.05% w/v Hydroxypropylmethylcellulose pH 7.75 made with Optima grade water • Decapeptide WRVYEKC(Dnp)ALK-acid (where Dnp is Dinitrophenyl maleimide) (10-mer) • L-Leucine 7-amido-4-methylcoumarin (L-AMC) • Purified ERAP1(37-941)-10His (ERAP1)
12.5 μL ERAP1 enzyme in 1×AB was combined with 250 nL test compound in DMSO. 12.5 μL of either 240 μM L-AMC in 1×AB or 100 μM 10-mer in 1×AB was added to the reaction and incubated at 23° C. for 1 h. For detection, plates were read at excitation 365 nm and emission 442 nm (L-AMC) or excitation 279 nm and emission 355 nm (10-mer). Compound IC50 was determined using a 4-parameter equation.
By IC50 is commonly meant the midpoint of a concentration-inhibition curve. `N#Cc1cc2c(cc1Cl)N1CCCC[C@@H]1COCCOc1ccc(C(=O)O)cc1S(=O)(=O)N2` (single isomer, unassigned) [Example 67]: the IC50 was under 250 nM.

As for `N#Cc1ccc2c(c1)NS(=O)(=O)c1cc(C(=O)O)ccc1OCCCC1CCCCN21` (single isomer, unassigned) [Example 8, 2-cyano-6,7,8,9,9a,10,11,12-octahydro-19H-dibenzo[b,f]pyrido[1,2-h][1]oxa[4]thia[5,8]diazacyclododecine-16-carboxylic acid 18,18-dioxide], the IC50 is under 250 nM.

Take `O=C(O)c1ccc2c(c1)S(=O)(=O)Nc1cc(C(F)(F)F)ccc1N1CCCCC1C/C=C/CO2` (racemic) [Example 1, (E)-2-(trifluoromethyl)-7,8,9,9a,10,13-hexahydro-6H, 20H-dibenzo[b,f]pyrido[1,2-h][1]oxa[4]thia[5,8]diazacyclotridecine-17-carboxylic acid 19,19-dioxide]: the IC50 was under 250 nM.

For `N#Cc1ccc2c(c1)NS(=O)(=O)c1cc(C(=O)O)ccc1OCCC1CCCCN21` (single isomer, unassigned) [Example 6, 2-cyano-7,8,9,9a,10,11-hexahydro-6H, 18H-dibenzo[b,f]pyrido[1,2-h][1]oxa[4]thia[5,8]diazacycloundecine-15-carboxylic acid 17,17-dioxide], the IC50 is over 1000 nM.

Consider `N#Cc1cc2c(cc1F)N1CCCCC1CCCCOc1ccc(C(=O)O)cc1S(=O)(=O)N2` (single isomer, unassigned) [Example 56, 2-cyano-3-fluoro-7,8,9,9a,10,11,12,13-octahydro-6H,20H-dibenzo[b,f]pyrido[1,2-h][1]oxa[4]thia[5,8]diazacyclotridecine-17-carboxylic acid 19,19-dioxide], for which the 50% inhibitory concentration (IC50) was under 250 nM.

As for `CS(=O)(=O)c1ccc2c(c1)NS(=O)(=O)c1cc(C(=O)O)ccc1OCCCC1CCCCN21` (racemic) [Example 36, 2-(methylsulfonyl)-6,7,8,9,9a,10,11,12-octahydro-19H-dibenzo[b,f]pyrido[1,2-h][1]oxa[4]thia[5,8]diazacyclododecine-16-carboxylic acid 18,18-dioxide], the IC50 is under 250 nM.

In the case of `CN1c2cc(S(C)(=O)=O)ccc2N2CCCCC2CCCOc2ccc(C(=O)O)cc2S1(=O)=O` (racemic) [Example 34, 19-methyl-2-(methylsulfonyl)-6,7,8,9,9a,10,11,12-octahydro-19H-dibenzo[b,f]pyrido[1,2-h][1]oxa[4]thia[5,8]diazacyclododecine-16-carboxylic acid 18,18-dioxide], the IC50 is under 250 nM.

Turning to `N#Cc1cc2c(cc1Cl)N1CCCCC1C/C=C/COc1ccc(C(=O)O)cc1S(=O)(=O)N2` (racemic) [Example 30, (E)-3-chloro-2-cyano-7,8,9,9a,10,13-hexa hydro-6H, 20H-dibenzo[b,f]pyrido[1,2-h][1]oxa[4]thia[5,8]diazacyclotridecine-17-carboxylic acid 19,19-dioxide], the IC50 is under 250 nM.

Regarding `CS(=O)(=O)c1cc2c(cc1F)N1CCCCC1CCCOc1ccc(C(=O)O)cc1S(=O)(=O)N2` (racemic) [Example 51, 3-fluoro-2-(methylsulfonyl)-6,7,8,9,9a,10,11,12-octahydro-19H-dibenzo[b,f]pyrido[1,2-h][1]oxa[4]thia[5,8]diazacyclododecine-16-carboxylic acid 18,18-dioxide], the IC50 was in the range of 250 to 1000 nM.

For `N#Cc1ccc2c(c1)NS(=O)(=O)c1cc(C(=O)O)ccc1OCCC1CCCCN21` (single isomer, unassigned) [Example 7, 2-cyano-7,8,9,9a,10,11-hexahydro-6H, 18H-dibenzo[b,f]pyrido[1,2-h][1]oxa[4]thia[5,8]diazacycloundecine-15-carboxylic acid 17,17-dioxide], the IC50 was over 1000 nM.

On to `N#Cc1cc2c(cc1F)N1CCCCC1COc1ccc(C(=O)O)cc1S(=O)(=O)N2` (single isomer, unassigned) [Example 38, 8-cyano-9-fluoro-12,13,14,15,15a,16-hexahydro-6H-dibenzo[b,f]pyrido[1,2-h][1,4,5,8]oxathiadiazecine-3-carboxylic acid 5,5-dioxide], for which the IC50 is under 250 nM.

Take `N#Cc1cc2c(cc1F)N1CCCCC1COc1ccc(C(=O)O)cc1S(=O)(=O)N2` (single isomer, unassigned) [Example 37, 8-cyano-9-fluoro-12,13,14,15,15a,16-hexahydro-6H-dibenzo[b,f]pyrido[1,2-h][1,4,5,8]oxathiadiazecine-3-carboxylic acid 5,5-dioxide]: the IC50 is over 1000 nM.

On to `N#Cc1cc2c(cc1Cl)N1CCCCC1COc1ccc(C(=O)O)cc1S(=O)(=O)N2` (racemic) [Example 14, 9-chloro-8-cyano-12,13,14,15,15a,16-hexahydro-6H-dibenzo[b,f]pyrido[1,2-h][1,4,5,8]oxathiadiazecine-3-carboxylic acid 5,5-dioxide], for which the IC50 was under 250 nM.

Turning to `N#Cc1cc2c(cc1F)N1CCCCC1CCCCOc1ccc(C(=O)O)cc1S(=O)(=O)N2` (racemic) [Example 28, 2-cyano-3-fluoro-7,8,9,9a,10,11,12,13-octahydro-6H,20H-dibenzo[b,f]pyrido[1,2-h][1]oxa[4]thia[5,8]diazacyclotridecine-17-carboxylic acid 19,19-dioxide], the IC50 is under 250 nM.

As to `N#Cc1cc2c(cc1Cl)N1CCCCC1C/C=C/COc1ccc(C(=O)O)cc1S(=O)(=O)N2` (single isomer, unassigned) [Example 45, (E)-3-chloro-2-cyano-7,8,9,9a,10,13-hexahydro-6H, 20H-dibenzo[b,f]pyrido[1,2-h][1]oxa[4]thia[5,8]diazacyclotridecine-17-carboxylic acid 19,19-dioxide], the IC50 is under 250 nM.

Regarding `N#Cc1ccc2c(c1)NS(=O)(=O)c1cc(C(=O)O)ccc1OC/C=C/CC1CCCCN21` (single isomer, unassigned) [Example 32, (E)-2-cyano-7,8,9,9a,10,13-hexahydro-6H, 20H-dibenzo[b,f]pyrido[1,2-h][1]oxa[4]thia[5,8]diazacyclotridecine-17-carboxylic acid 19,19-dioxide], the IC50 is under 250 nM.

In the case of `N#Cc1cc2c(cc1Cl)N1CCCCC1CNCCOc1ccc(C(=O)O)cc1S(=O)(=O)N2` (racemic) [Example 66, 3-chloro-2-cyano-7,8,9,9a,10,11,12,13-octahydro-6H, 20H-dibenzo[b,f]pyrido[1,2-h][1]oxa[4]thia[5,8,11]triazacyclotridecine-17-carboxylic acid 19,19-dioxide], the IC50 was over 1000 nM.

Turning to `N#Cc1cc2c(cc1Cl)N1CCCCC1/C=C/COc1ccc(C(=O)O)cc1S(=O)(=O)N2` (single isomer, unassigned) [Example 47, (E)-3-chloro-2-cyano-6,7,8,9,9a,12-hexahydro-19H-dibenzo[b,f]pyrido[1,2-h][1]oxa[4]thia[5,8]diazacyclododecine-16-carboxylic acid 18,18-dioxide], the IC50 was 250 to 1000 nM.

Consider `CS(=O)(=O)NC(=O)c1ccc2c(c1)S(=O)(=O)Nc1cc(C#N)c(Cl)cc1N1CCCCC1C/C=C/CO2` (single isomer, unassigned) [Example 62], for which the IC50 is over 1000 nM.

On to `CS(=O)(=O)c1cc2c(cc1F)N1CCCCC1CCCCOc1ccc(C(=O)O)cc1S(=O)(=O)N2` (single isomer, unassigned) [Example 44, 3-fluoro-2-(methylsulfonyl)-7,8,9,9a,10,11,12,13-octahydro-6H, 20H-dibenzo[b,f]pyrido[1,2-h][1]oxa[4]thia[5,8]diazacyclotridecine-17-carboxylic acid 19,19-dioxide], for which the concentration for half-maximal inhibition (IC50) is 250 to 1000 nM.

Turning to `N#Cc1cc2c(cc1Cl)N1CCCCC1CCCCOc1ccc(C(=O)O)cc1S(=O)(=O)N2` (single isomer, unassigned) [Example 27, 3-chloro-2-cyano-7,8,9,9a,10,11,12,13-octahydro-6H, 20H-dibenzo[b,f]pyrido[1,2-h][1]oxa[4]thia[5,8]diazacyclotridecine-17-carboxylic acid 19,19-dioxide], the IC50 is under 250 nM.

As for `CS(=O)(=O)c1cc2c(cc1F)N1CCCCC1CCCCOc1ccc(C(=O)O)cc1S(=O)(=O)N2` (single isomer, unassigned) [Example 43, 3-fluoro-2-(methylsulfonyl)-7,8,9,9a,10,11,12,13-octahydro-6H, 20H-dibenzo[b,f]pyrido[1,2-h][1]oxa[4]thia[5,8]diazacyclotridecine-17-carboxylic acid 19,19-dioxide], the IC50 is under 250 nM.

For `N#Cc1ccc2c(c1)NS(=O)(=O)c1cc(C(=O)O)ccc1OCCC1CCCCN21` (racemic) [Example 2, 2-cyano-7,8,9,9a,10,11-hexahydro-6H, 18H-dibenzo[b,f]pyrido[1,2-h][1]oxa[4]thia[5,8]diazacycloundecine-15-carboxylic acid 17,17-dioxide], the concentration for half-maximal inhibition (IC50) is over 1000 nM.

In the case of `N#Cc1cc2c(cc1F)N1CCCCC1CCCOc1ccc(C(=O)O)cc1S(=O)(=O)N2` (single isomer, unassigned) [Example 42, 2-cyano-3-fluoro-6,7,8,9,9a,10,11,12-octahydro-19H-dibenzo[b,f]pyrido[1,2-h][1]oxa[4]thia[5,8]diazacyclododecine-16-carboxylic acid 18,18-dioxide], the IC50 is under 250 nM.
